Assay results reported in patent US20230339981A1, “KRAS G12D MODULATING COMPOUNDS” (priority 2022, published 2023).

Assays:
[1] = target: GDP-loaded KRAS G12D (Homo sapiens (Human), UniProt P01116, G12D); experiment: KRAS G12D (GDP) biochemical assay (TR-FRET probe displacement); type: binding; details: 2 hours
In short: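 TR-FRET probe displacement: 1:3 DMSO serial dilutions pre-incubated 30 min with GDP-bound KRAS G12D, followed by Eu-streptavidin/probe for 2 h at room temperature (Hepes pH 7.4, NaCl, MgCl2, Tween-20 buffer). IC50 defined as concentration halving TR-FRET ratio, from sigmoidal dose-response fit.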

[2] = tested on: GP2D (KRAS G12D) cells; experiment: 2D cell viability assay (CellTiter-Glo); type: cell-based; details: GP2d, 96 h, 4 days
In short: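 Viability was read by CellTiter-Glo after 4 days at 37 °C of 2D culture of KRAS G12D GP2D cells (1000/well, RPMI, 10% FBS) on pre-spotted threefold compound dilutions. EC50 was fitted with a sigmoidal dose-response model as the point of half-maximal luminescence loss.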

GDP-loaded KRAS G12D, sequence (P01116-2 other isoform, or with tags, fused parts or gaps G12D): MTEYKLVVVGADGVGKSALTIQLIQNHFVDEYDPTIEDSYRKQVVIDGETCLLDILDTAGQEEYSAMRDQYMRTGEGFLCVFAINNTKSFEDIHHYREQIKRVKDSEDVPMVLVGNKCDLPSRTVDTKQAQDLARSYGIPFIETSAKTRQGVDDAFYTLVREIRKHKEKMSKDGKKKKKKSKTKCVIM

Row | Structure (SMILES) | IC50 [1] | EC50 [2]
1 | C#Cc1c(F)ccc2cccc(-c3nc4c5c(nc(OC[C@@]67CCCN6C[C@H](F)C7)nc5c3F)N3C[C@H]5CC[C@H](N5)[C@H]3[C@H](C)C4)c12 [Example 184, (5R,5aR,6S,9R)-2-(8-ethynyl-7-fluoronaphthalen-1-yl)-1-fluoro-12-(((2R,7aS)-2-fluorotetrahydro-1H-pyrrolizin-7a(5H)-yl)methoxy)-5-methyl-4,5,5a,6,7,8,9,10-octahydro-3,10a,11,13,14-pentaaza-6,9-methanonaphtho[1,8-ab]heptalene] | 0.7 nM | 19 nM
2 | C#Cc1c(F)ccc2cccc(-c3nc4c5c(nc(OC[C@@]67CCCN6C[C@H](F)C7)nc5c3F)N3C[C@H]5CC[C@H](N5)[C@H]3C[C@H]4O)c12 [Example 186, (4R,5aR,6S,9R)-2-(8-ethynyl-7-fluoronaphthalen-1-yl)-1-fluoro-12-(((2R,7aS)-2-fluorotetrahydro-1H-pyrrolizin-7a(5H)-yl)methoxy)-4,5,5a,6,7,8,9,10-octahydro-3,10a,11,13,14-pentaaza-6,9-methanonaphtho[1,8-ab]heptalen-4-ol] | 0.2 nM | 13 nM
3 | C#Cc1c(F)ccc2cccc(-c3nc4c5c(nc(OC[C@@]67CCCN6[C@H](COC(C(F)(F)F)(C(F)(F)F)C(F)(F)F)CC7)nc5c3F)N3C[C@H]5CC[C@H](N5)[C@H]3CC4)c12 [Example 187, (5aR,6S,9R)-2-(8-ethynyl-7-fluoronaphthalen-1-yl)-1-fluoro-12-(((3S,7aS)-3-(((1,1,1,3,3,3-hexafluoro-2-(trifluoromethyl)propan-2-yl)oxy)methyl)tetrahydro-1H-pyrrolizin-7a(5H)-yl)methoxy)-4,5,5a,6,7,8,9,10-octahydro-3,10a,11,13,14-pentaaza-6,9-methanonaphtho[1,8-ab]heptalene] | 0.9 nM | 62 nM
4 | C#Cc1c(F)ccc2cccc(-c3nc4c5c(nc(OC[C@@]67CCCN6C[C@H](F)C7)nc5c3F)N3C[C@H]5CC[C@H](N5)[C@H]3CCCC4)c12 [Example 188, (7aR,8S,11R)-2-(8-ethynyl-7-fluoronaphthalen-1-yl)-1-fluoro-14-(((2R,7aS)-2-fluorotetrahydro-1H-pyrrolizin-7a(5H)-yl)methoxy)-4,5,6,7,7a,8,9,10,11,12-decahydro-3,12a,13,15,16-pentaaza-8,11-methanocyclohepta[4,5]cyclonona[1,2,3-de]naphthalene] | 0.2 nM | 100 nM
5 | C#Cc1c(F)ccc2cccc(-c3cc4c5c(nc(OC[C@@]67CCCN6C[C@H](F)C7)nc5c3F)N3C[C@H]5CC[C@H](N5)[C@H]3CCC4)c12 [Example 192, (1S,4R,15aR)-11-(8-ethynyl-7-fluoronaphthalen-1-yl)-10-fluoro-8-(((2R,7aS)-2-fluorotetrahydro-1H-pyrrolizin-7a(5H)-yl)methoxy)-2,3,4,5,13,14,15,15a-octahydro-1H-1,4-epiminoazepino[1′,2′:1,8]azocino[2,3,4-de]quinazoline] | 0.1 nM | 4.5 nM
6 | C#Cc1c(F)ccc2cc(N)cc(-c3cc4c5c(nc(OC[C@@]67CCCN6C[C@H](F)C7)nc5c3F)N3C[C@H]5CC[C@H](N5)[C@@H]3[C@@H](C)C4)c12 [Example 193, 5-ethynyl-6-fluoro-4-((1S,4R,14S,14aS)-10-fluoro-8-(((2R,7aS)-2-fluorotetrahydro-1H-pyrrolizin-7a(5H)-yl)methoxy)-14-methyl-1,2,3,4,5,13,14,14a-octahydro-1,4-epiminoazepino[1′,2′:1,7]azepino[2,3,4-de]quinazolin-11-yl)naphthalen-2-amine] | 0.05 nM | 4.9 nM
7 | C#Cc1c(F)ccc2cc(N)cc(-c3nc4c5c(nc(OC[C@@]67CCCN6C[C@H](F)C7)nc5c3F)N3C[C@H]5CC[C@H](N5)[C@@H]3CC[C@H]4C)c12 [Example 194, 5-ethynyl-6-fluoro-4-((4R,6aS,7S,10R)-1-fluoro-13-(((2R,7aS)-2-fluorotetrahydro-1H-pyrrolizin-7a(5H)-yl)methoxy)-4-methyl-5,6,6a,7,8,9,10,11-octahydro-4H-3,11a,12,14,15-pentaaza-7,10-methanocyclohepta[4,5]cycloocta[1,2,3-de]naphthalen-2-yl)naphthalen-2-amine] | 31 nM | 70 nM
8 | C#Cc1c(F)ccc2cccc(-c3nc4c5c(nc(OC[C@@]67CCCN6[C@H](CF)CC7)nc5c3F)N3C[C@H]5CC[C@H](N5)[C@H]3CC[C@H]4C)c12 [Example 195, (4R,6aR,7S,10R)-2-(8-ethynyl-7-fluoronaphthalen-1-yl)-1-fluoro-13-(((3S,7aS)-3-(fluoromethyl)tetrahydro-1H-pyrrolizin-7a(5H)-yl)methoxy)-4-methyl-5,6,6a,7,8,9,10,11-octahydro-4H-3,11a,12,14,15-pentaaza-7,10-methanocyclohepta[4,5]cycloocta[1,2,3-de]naphthalene] | 0.07 nM | 1.5 nM
9 | C#Cc1c(F)ccc2cc(N)cc(-c3nc4c5c(nc(OC[C@@]67CCCN6C[C@H](F)C7)nc5c3F)N3C[C@H]5CC[C@H](N5)[C@@H]3[C@@H](C)C4)c12 [Example 196, 5-ethynyl-6-fluoro-4-((5S,5aS,6S,9R)-1-fluoro-12-(((2R,7aS)-2-fluorotetrahydro-1H-pyrrolizin-7a(5H)-yl)methoxy)-5-methyl-4,5,5a,6,7,8,9,10-octahydro-3,10a,11,13,14-pentaaza-6,9-methanonaphtho[1,8-ab]heptalen-2-yl)naphthalen-2-amine] | 0.1 nM | 1.8 nM
10 | C#Cc1c(F)ccc2cccc(-c3nc4c5c(nc(OC[C@@]67CCCN6[C@H](COc6cnc(C(F)(F)F)cn6)CC7)nc5c3F)N3C[C@H]5CC[C@H](N5)[C@H]3CCC4)c12 [Example 197, (6aR,7S,10R)-2-(8-ethynyl-7-fluoronaphthalen-1-yl)-1-fluoro-13-(((3S,7aS)-3-(((5-(trifluoromethyl)pyrazin-2-yl)oxy)methyl)tetrahydro-1H-pyrrolizin-7a(5H)-yl)methoxy)-5,6,6a,7,8,9,10,11-octahydro-4H-3,11a,12,14,15-pentaaza-7,10-methanocyclohepta[4,5]cycloocta[1,2,3-de]naphthalene] | 0.04 nM | 2.4 nM
11 | C#Cc1c(F)ccc2cccc(-c3nc4c5c(nc(OC[C@@]67CCCN6[C@H](COc6cc(C(F)(F)F)cnn6)CC7)nc5c3F)N3C[C@H]5CC[C@H](N5)[C@H]3CCC4)c12 [Example 198, (6aR,7S,10R)-2-(8-ethynyl-7-fluoronaphthalen-1-yl)-1-fluoro-13-(((3S,7aS)-3-(((5-(trifluoromethyl)pyridazin-3-yl)oxy)methyl)tetrahydro-1H-pyrrolizin-7a(5H)-yl)methoxy)-5,6,6a,7,8,9,10,11-octahydro-4H-3,11a,12,14,15-pentaaza-7,10-methanocyclohepta[4,5]cycloocta[1,2,3-de]naphthalene] | 0.02 nM | 2.4 nM
12 | C#Cc1c(F)ccc2cccc(-c3nc4c5c(nc(OC[C@@]67CCCN6[C@H](COc6cnnc(C(F)(F)F)c6)CC7)nc5c3F)N3C[C@H]5CC[C@H](N5)[C@H]3CCC4)c12 [Example 199, (6aR,7S,10R)-2-(8-ethynyl-7-fluoronaphthalen-1-yl)-1-fluoro-13-(((3S,7aS)-3-(((6-(trifluoromethyl)pyridazin-4-yl)oxy)methyl)tetrahydro-1H-pyrrolizin-7a(5H)-yl)methoxy)-5,6,6a,7,8,9,10,11-octahydro-4H-3,11a,12,14,15-pentaaza-7,10-methanocyclohepta[4,5]cycloocta[1,2,3-de]naphthalene] | 0.07 nM | 3.2 nM
13 | C#Cc1c(F)ccc2cccc(-c3nc4c5c(nc(OC[C@@]67CCCN6[C@H](COc6cnc(C(F)F)cn6)CC7)nc5c3F)N3C[C@H]5CC[C@H](N5)[C@H]3CCC4)c12 [Example 200, (6aR,7S,10R)-13-(((3S,7aS)-3-(((5-(difluoromethyl)pyrazin-2-yl)oxy)methyl)tetrahydro-1H-pyrrolizin-7a(5H)-yl)methoxy)-2-(8-ethynyl-7-fluoronaphthalen-1-yl)-1-fluoro-5,6,6a,7,8,9,10,11-octahydro-4H-3,11a,12,14,15-pentaaza-7,10-methanocyclohepta[4,5]cycloocta[1,2,3-de]naphthalene] | 0.05 nM | 2.9 nM
14 | C#Cc1c(F)ccc2cccc(-c3nc4c5c(nc(OC[C@@]67CCCN6[C@H](CSc6cc(C(F)(F)F)ncn6)CC7)nc5c3F)N3C[C@H]5CC[C@H](N5)[C@H]3CCC4)c12 [Example 201, (6aR,7S,10R)-2-(8-ethynyl-7-fluoronaphthalen-1-yl)-1-fluoro-13-(((3S,7aS)-3-(((6-(trifluoromethyl)pyrimidin-4-yl)thio)methyl)tetrahydro-1H-pyrrolizin-7a(5H)-yl)methoxy)-5,6,6a,7,8,9,10,11-octahydro-4H-3,11a,12,14,15-pentaaza-7,10-methanocyclohepta[4,5]cycloocta[1,2,3-de]naphthalene] | 0.02 nM | 10 nM
15 | C#Cc1c(F)ccc2cccc(-c3c(Cl)c4c5c(nc(OC[C@@]67CCCN6C[C@H](F)C7)nc5c3F)N3C[C@H]5CC[C@H](N5)[C@H]3CC4)c12 [Example 202, (1S,4R,14aR)-12-chloro-11-(8-ethynyl-7-fluoronaphthalen-1-yl)-10-fluoro-8-(((2R,7aS)-2-fluorotetrahydro-1H-pyrrolizin-7a(5H)-yl)methoxy)-1,2,3,4,5,13,14,14a-octahydro-1,4-epiminoazepino[1′,2′:1,7]azepino[2,3,4-de]quinazoline] | 0.37 nM | 64 nM
